Assay results reported in patent publication US4433147A, “Process for preparing 10-deazaminopterins” (priority 1982, dated 1984).
Where “and” joins values, the source holds several entries; their conditions need not be identical. Equal entries are not always repeated. Where two headings read alike, the source gives them in different places.

Key:
[1] = system: ascites tumor systems; assay: Ascites tumor systems, summary of Examples 10 to 13; type: in vivo, mice; conditions: all of the ascites tumor systems examined
[2] = in vivo; conditions: read-out: acute LD50
[3] = Plasma and tissue (tumor, small intestine and marrow) pharmacokinetics; type: in vivo; conditions: for Plasma and tissue pharmacokinetics: small intestine and marrow, dAM versus MTX
[4] = system: carrier in tumor; assay: membrane transport by carrier in tumor; type: cell-based
[5] = system: S180-J ascites
Excerpt: (§1) ^1 One dose (s.c.) every 2 days for a total of 5 doses.
(§2) ^2 Toxic animals weigh 13-15 g at death (original weight 20 g).
(§3) MST = Median survival time ± standard deviation.
ILS = Increased life span.
Each dose tested 2 to 3 times.

[6] = system: P815 ascites
Excerpt: as §1, §3
ILS = Increased life span.
Each dosage tested twice.

[7] = system: L1210 ascites
Excerpt: ^1 One dose every 2 days for a total of 5 doses.
^2 Animals weigh 13-15 g at death (original weight 20 g).
as §3
ILS = increased life span.
Each dose tested 2 to 4 times.

[8] = system: Ehrlich ascites
Excerpt: as §1, §2, §3
ILS = Increased life span.

[9] = system: L1210 leukemia; assay: L1210 leukemia in BD (2) F1 female mice, i.p., increase in median life span (Example 8, Table I); conditions: for Increased life span / Median life span / Weight change: three times per week
[10] = system: L1210 leukemia; assay: L1210 leukemia in BD (2) F1 female mice, i.p., 10-alkyl derivatives (Example 9, Table II); conditions: for AST / ILS: every two days times five; for antileukemic activity compared with methotrexate: on a similar dosage level
[11] = system: dihydrofolic reductase; conditions: cited from earlier work
[12] = system: Streptococcus faecium; conditions: DeGraw et al., J. Heterocyclic Chem. 8 105 (1971); cited from earlier work
[13] = 6.0 mg/kg oral every 2 days × 5

## Nc1nc(N)c2nc(CCc3ccc(C(=O)N[C@@H](CCC(=O)O)C(=O)O)cc3)cnc2n1 [10-deazaminopterin, 10-Deazaminopterin]
[1]
  activity compared with methotrexate: more active than methotrexate
[2]
  LD50: 65 mg/kg
[3]; optimum dosages, dAM over MTX
  persistence of exchangeable drug in tumor: greater persistence
[3]
  Plasma and tissue pharmacokinetics: similar
[4]; dAM and MTX
  competition for carrier mechanism: compete for the same carrier mechanism
[4]; dAM versus MTX
  affinity of carrier in tumor: greater affinity
[4]; membrane transport in tumor, dAM versus MTX
  saturability (Km) for influx: favoring greater accumulation of dAM
[5]; 3 mg/kg s.c. every 2 days × 5
  ILS (increased life span): 8.7%
  MST (median survival time): 13.0 ± 1.1 days
[5]; 6 mg/kg s.c. every 2 days × 5
  ILS (increased life span): 74.8%
  MST (median survival time): 21.2 ± 1.7 days
[5]; 9 mg/kg s.c. every 2 days × 5
  ILS (increased life span): 117.3%
  MST (median survival time): 26.3 ± 0.7 days
[5]; 12 mg/kg s.c. every 2 days × 5
  60 day survivors: Two
  ILS (increased life span): > 159.6%
  MST (median survival time): > 31.4 ± 2.5 days
[5]; 18 mg/kg s.c. every 2 days × 5
  ILS (increased life span): 54.0%
  MST (median survival time): 18.6 ± 2.4 days
[5]; against S180, s.c.
  long-term survivors: long-term survivors
[5]; against S180, s.c., q2d×5
  Maximum ILS: > +160%
[5]; mouse, in vivo
  Toxic Deaths: 0/10 and 0/15 and 7/10
[6]; 6 mg/kg s.c. every 2 days × 5
  ILS (increased life span): 107.6%
  MST (median survival time): 18.2 ± 1.3 days
[6]; 9 mg/kg s.c. every 2 days × 5
  ILS (increased life span): 116.3%
  MST (median survival time): 19.0 ± 0.9 days
[6]; 12 mg/kg s.c. every 2 days × 5
  ILS (increased life span): 118.4%
  MST (median survival time): 19.2 ± 1.2 days
[6]; against P815, s.c., q2d×5
  Maximum ILS: +117%
[6]; mouse, in vivo
  Toxic Deaths: 0/10
[7]; 3 mg/kg oral every 2 days × 5
  ILS (increased life span): 77%
  MST (median survival time): 11.7 ± 1.0 days
[7]; 3 mg/kg s.c. every 2 days × 5
  ILS (increased life span): 108%
  MST (median survival time): 13.8 ± 0.7 days
[7]; [13]
  ILS (increased life span): 122%
  MST (median survival time): 14.7 ± 1.3 days
[7]; 6 mg/kg s.c. every 2 days × 5
  ILS (increased life span): 131%
  MST (median survival time): 15.2 ± 1.5 days
[7]; 9 mg/kg s.c. every 2 days × 5
  ILS (increased life span): 168%
  MST (median survival time): 17.8 ± 0.8 days
[7]; 12 mg/kg s.c. every 2 days × 5
  ILS (increased life span): 176%
  MST (median survival time): 18.2 ± 1.3 days
[7]; against L1210, orally, same dosage and schedule
  Maximum ILS: +122%
[7]; against L1210, s.c., q2d×5
  Maximum ILS: +172%
[7]; ip
  Maximum ILS: +203%
[7]; mouse, in vivo
  Toxic Deaths: 0/10 and 0/15 and 1/15 and 0/20
[8]; 6 mg/kg s.c. every 2 days × 5
  ILS (increased life span): 34.8%
  MST (median survival time): 23.2 ± 1.8 days
[8]; 9 mg/kg s.c. every 2 days × 5
  ILS (increased life span): 58.1%
  MST (median survival time): 27.2 ± 2.2 days
[8]; 12 mg/kg s.c. every 2 days × 5
  ILS (increased life span): 64.0%
  MST (median survival time): 28.2 ± 2.9 days
[8]; against Ehrlich, s.c., q2d×5
  Maximum ILS: +61%
[8]; mouse, in vivo
  Toxic Deaths: 0/10
[9]; 0.1875 mg/kg i.p.
  Increased life span: 3.0%
  Median life span: 7.2 ± 0.6 days
  Weight change: +10%
[9]; 0.375 mg/kg i.p.
  Increased life span: 29.7%
  Median life span: 8.9 ± 1.0 days
  Weight change: +7%
[9]; 3.0 mg/kg i.p.
  Increased life span: 164.8%
  Median life span: 13.0 ± 1.9 days
  Weight change: +5%
[9]; 6.0 mg/kg i.p.
  Toxicity: slight toxicity
  Increased life span: 210.0%
  Median life span: 21.8 ± 1.5 days
  Weight change: -3%
[9]; i.p.
  life span of the test mice: very considerably increased
[9]; on a similar dosage level, i.p.
  antileukemic activity compared with methotrexate: superior to methotrexate

## CCC(Cc1cnc2nc(N)nc(N)c2n1)c1ccc(C(=O)N[C@@H](CCC(=O)O)C(=O)O)cc1 (stereo partly shown) [10-ethyl-10-deazaminopterin]
[10]; 12 mg/kg i.p.
  AST: 18.3 ± 1.7 days
  ILS: +172%
[10]; 18 mg/kg i.p.
  AST: 21.8 ± 1.4 days
  ILS: +220%
[10]; i.p.
  life span of the test mice: very considerably increased
  antileukemic activity compared with methotrexate: superior to methotrexate

## CN(Cc1cnc2nc(N)nc(N)c2n1)c1ccc(C(=O)N[C@@H](CCC(=O)O)C(=O)O)cc1 [Methotrexate, reference compound]
[2]; ip or sc
  LD50: 96 mg/kg
[3]
  Plasma and tissue pharmacokinetics: similar
[6]; 6 mg/kg s.c. every 2 days × 5
  MST (median survival time): 15.4 ± 1.1 days
  Toxic Deaths: 0/10
[6]; 9 mg/kg s.c. every 2 days × 5
  MST (median survival time): 17.6 ± 1.6 days
  Toxic Deaths: 0/10
[6]; 12 mg/kg s.c. every 2 days × 5
  MST (median survival time): 18.4 ± 1.3 days
  Toxic Deaths: 0/10
[8]; 6 mg/kg s.c. every 2 days × 5
  MST (median survival time): 19.8 ± 2.3 days
  Toxic Deaths: 0/10
[8]; 9 mg/kg s.c. every 2 days × 5
  MST (median survival time): 20.8 ± 3.0 days
  Toxic Deaths: 0/10
[8]; 12 mg/kg s.c. every 2 days × 5
  MST (median survival time): 20.2 ± 1.9 days
  Toxic Deaths: 0/10
[11]
  dihydrofolic reductase inhibition: powerful dihydrofolic reductase inhibitors
[9]; 3.0 mg/kg i.p.
  Weight change: +8%
[9]; 6.0 mg/kg i.p.
  Toxicity: Slight toxicity
  Weight change: +3%

## CC(Cc1cnc2nc(N)nc(N)c2n1)c1ccc(C(=O)N[C@@H](CCC(=O)O)C(=O)O)cc1 (stereo partly shown) [10-methyl-10-deazaminopterin, 10-Methyl-10-deazaminopterin]
[10]; 12 mg/kg i.p.
  AST: 18.1 ± 1.9 days
  ILS: +170%
[10]; 18 mg/kg i.p.
  AST: 22.2 ± 1.6 days
  ILS: +230%
[10]; i.p.
  life span of the test mice: very considerably increased
  antileukemic activity compared with methotrexate: superior to methotrexate
[10]; maximum dose, about 22 mg/kg, i.p.
  Toxicity: slight toxicity

## Nc1nc2ncc(CCc3ccc(C(=O)O)cc3)nc2c(=O)[nH]1 [10-deazapteroic acid]
[12]
  growth-inhibitory activity: potent growth-inhibitory activity
